Experimental data published in ChEMBL document CHEMBL5154646, “Structure-guided optimization of 1H-imidazole-2-carboxylic acid derivatives affording potent VIM-Type metallo-β-lactamase inhibitors” (Eur J Med Chem, 2022).

What was measured:
[1] = tested on: Escherichia coli; assay: Potentiation of meropenem-induced antibacterial activity against Escherichia coli C1541 expressing IMP-1 assessed as meropenem MIC at 10 ug/ml incubated for 18 to 20 hrs by broth microtiter dilution method (reference value: 32 ug/ml); format: functional; details: dose 10 µg/ml, time 18-20 hrs
[2] = tested on: Escherichia coli; assay: Potentiation of meropenem-induced antibacterial activity against Escherichia coli C1541 expressing VIM-2 assessed as fold reduction in meropenem MIC at 10 ug/ml incubated for 18 to 20 hrs by CLSI based broth microtiter dilution method; format: functional; details: dose 10 µg/ml; time 18-20 hrs
[3] = tested on: Escherichia coli; assay: Potentiation of meropenem-induced antibacterial activity against Escherichia coli C1541 expressing IMP-1 assessed as fold reduction in meropenem MIC at 10 ug/ml incubated for 18 to 20 hrs by CLSI based broth microtiter dilution method; format: functional; details: dose 10 µg/ml; time 18-20 hrs
[4] = tested on: Escherichia coli; assay: Potentiation of meropenem-induced antibacterial activity against Escherichia coli C1542 expressing VIM-2 assessed as meropenem MIC at 10 ug/ml incubated for 18 to 20 hrs by CLSI based broth microtiter dilution method (reference value: 16 ug/ml); format: functional; details: dose 10 µg/ml, time 18-20 hrs
[5] = Inhibition of bacterial recombinant full length C-terminal-TEV-His6-tagged VIM-1 expressed in Escherichia coli Transetta using FC-5 as substrate preincubated with enzyme for 10 mins followed by substrate addition by fluorescence based analysis; design: species or system Bacteria
[6] = tested on: Pseudomonas aeruginosa; assay: Potentiation of meropenem-induced antibacterial activity against Pseudomonas aeruginosa W35 expressing VIM-2 assessed as fold reduction in meropenem MIC at 100 ug/ml incubated for 18 to 20 hrs by CLSI based broth microtiter dilution method; format: functional; details: dose 100 µg/ml; time 18-20 hrs
[7] = tested on: Escherichia coli; assay: Synergistic antibacterial activity against Escherichia coli C1541 expressing VIM-2 assessed as fractional inhibitory concentration index incubated for 18 to 20 hrs in presence of meropenem and 1 uM of zinc sulfate by checkerboard microdilution assay; format: functional; details: time 18-20 hrs
[8] = tested on: Escherichia coli; assay: Potentiation of meropenem-induced antibacterial activity against Escherichia coli C1541 expressing VIM-2 assessed as meropenem MIC at 10 ug/ml incubated for 18 to 20 hrs by CLSI based broth microtiter dilution method (reference value: 16 ug/ml); format: functional; details: dose 10 µg/ml, time 18-20 hrs
[9] = tested on: Pseudomonas aeruginosa; assay: Potentiation of meropenem-induced antibacterial activity against Pseudomonas aeruginosa W35 expressing VIM-2 assessed as meropenem MIC at 100 ug/ml incubated for 18 to 20 hrs in presence of meropenem by CLSI based broth microtiter dilution method (reference value: 64 ug/ml); format: functional; details: dose 100 µg/ml, time 18-20 hrs
[10] = Inhibition of bacterial IMP-1 (1 to 246 residues) expressed in Escherichia coli Transetta (DE3) using FC-5 as substrate preincubated with enzyme for 10 mins followed by substrate addition by fluorescence based analysis; design: species or system Bacteria
[11] = tested on: Pseudomonas aeruginosa; assay: Synergistic antibacterial activity against Pseudomonas aeruginosa W35 expressing VIM-2 assessed as fractional inhibitory concentration index incubated for 18 to 20 hrs in presence of meropenem by checkerboard microdilution assay; format: functional; details: time 18-20 hrs
[12] = tested on: Pseudomonas aeruginosa; assay: Potentiation of meropenem-induced antibacterial activity against Pseudomonas aeruginosa 5621 expressing VIM-2 assessed as meropenem MIC at 100 ug/ml incubated for 18 to 20 hrs in presence of meropenem by CLSI based broth microtiter dilution method (reference value: 64 ug/ml); format: functional; details: dose 100 µg/ml, time 18-20 hrs
[13] = tested on: Escherichia coli; assay: Synergistic antibacterial activity against Escherichia coli C1541 expressing VIM-2 assessed as fractional inhibitory concentration index incubated for 18 to 20 hrs in presence of meropenem by checkerboard microdilution assay; format: functional; details: time 18-20 hrs
[14] = tested on: Escherichia coli; assay: Synergistic antibacterial activity against Escherichia coli C1541 expressing VIM-2 assessed as fractional inhibitory concentration index incubated for 18 to 20 hrs in presence of meropenem and 100 uM of zinc sulfate by checkerboard microdilution assay; format: functional; details: time 18-20 hrs
[15] = tested on: Pseudomonas aeruginosa; assay: Potentiation of meropenem-induced antibacterial activity against Pseudomonas aeruginosa 5621 expressing VIM-2 assessed as fold reduction in meropenem MIC at 100 ug/ml incubated for 18 to 20 hrs by CLSI based broth microtiter dilution method; format: functional; details: dose 100 µg/ml; time 18-20 hrs
[16] = Inhibition of bacterial recombinant full length N-terminal-TEV-His6-tagged VIM-5 expressed in Escherichia coli Transetta using FC-5 as substrate preincubated with enzyme for 10 mins followed by substrate addition by fluorescence based analysis; design: species or system Bacteria
[17] = Inhibition of bacterial VIM-2 (27 to 266 residues) expressed in Escherichia coli Transetta (DE3) using FC-5 as substrate preincubated with enzyme for 10 mins followed by substrate addition in presence of 100 uM Zn2+ by fluorescence based analysis; design: species or system Bacteria
[18] = Inhibition of bacterial VIM-2 (27 to 266 residues) expressed in Escherichia coli Transetta (DE3) using FC-5 as substrate preincubated with enzyme for 10 mins followed by substrate addition by fluorescence based analysis; design: species or system Bacteria
[19] = tested on: Escherichia coli; assay: Potentiation of meropenem-induced antibacterial activity against Escherichia coli C1580 expressing VIM-2 assessed as meropenem MIC at 10 ug/ml incubated for 18 to 20 hrs by CLSI based broth microtiter dilution method (reference value: 32 ug/ml); format: functional; details: dose 10 µg/ml, time 18-20 hrs
[20] = Inhibition of bacterial NDM-1 (1 to 270 residues) expressed in Escherichia coli Transetta (DE3) using FC-5 as substrate preincubated with enzyme for 10 mins followed by substrate addition by fluorescence based analysis; design: species or system Bacteria
[21] = tested on: Escherichia coli; assay: Potentiation of meropenem-induced antibacterial activity against Escherichia coli C1542 expressing VIM-2 assessed as fold reduction in meropenem MIC at 10 ug/ml incubated for 18 to 20 hrs by CLSI based broth microtiter dilution method; format: functional; details: dose 10 µg/ml; time 18-20 hrs
[22] = Inhibition of bacterial VIM-2 (27 to 266 residues) expressed in Escherichia coli Transetta (DE3) using FC-5 as substrate preincubated with enzyme for 10 mins followed by substrate addition in presence of 1 uM Zn2+ by fluorescence based analysis; design: species or system Bacteria
[23] = Solubility of the compound in water; format: physicochemical
[24] = tested on: Escherichia coli; assay: Potentiation of meropenem-induced antibacterial activity against Escherichia coli C1580 expressing VIM-2 assessed as fold reduction in meropenem MIC at 10 ug/ml incubated for 18 to 20 hrs by CLSI based broth microtiter dilution method; format: functional; details: dose 10 µg/ml; time 18-20 hrs
[25] = tested on: Escherichia coli; assay: Potentiation of meropenem-induced antibacterial activity against Escherichia coli C1541 expressing IMP-1 assessed as fold reduction in meropenem MIC at 100 ug/ml incubated for 18 to 20 hrs by CLSI based broth microtiter dilution method; format: functional; details: dose 100 µg/ml; time 18-20 hrs

Structure (SMILES)	MIC [1] [µg/mL]	MIC [4] [µg/mL]	IC50 [5] [µM]	MIC [8] [µg/mL]	MIC [9] [µg/mL]	IC50 [10] [µM]	MIC [12] [µg/mL]	IC50 [16] [µM]	IC50 [18] [µM]	MIC [19] [µg/mL]	IC50 [20] [µM]	fold change (FC) [2]	fold change (FC) [3]	fold change (FC) [6]	fractional inhibitory concentration index (FICI) [7]	fractional inhibitory concentration index (FICI) [13]	fractional inhibitory concentration index (FICI) [14]	fold change (FC) [15]	fold change (FC) [21]	fold change (FC) [24]	other results
O=C(O)c1nccn1Cc1ccccc1	32	16	4.14	16	32	32.1	64	1.55	0.48	16	63.5	1	1	2	–	–	–	1	1	2	–
NCc1ccc(Cn2ccnc2C(=O)O)cc1	32	16	8.55	8	16	75.5	32	18.2	3.89	16	165	2	1	4	–	–	–	2	1	2	–
Cc1cnc(C(=O)O)n1Cc1ccccc1	32	0.5	3.18	< 0.25	16	86.5	32	2.2	0.48	1	29.7	>64	1	4	–	–	–	2	32	32	–

Continued by falling MIC [1], values first:

MIC [1] [µg/mL]	MIC [4] [µg/mL]	IC50 [5] [µM]	MIC [8] [µg/mL]	MIC [9] [µg/mL]	IC50 [10] [µM]	MIC [12] [µg/mL]	IC50 [16] [µM]	IC50 [18] [µM]	MIC [19] [µg/mL]	IC50 [20] [µM]	Structure (SMILES)	fold change (FC) [2]	fold change (FC) [3]	fold change (FC) [6]	fractional inhibitory concentration index (FICI) [7]	fractional inhibitory concentration index (FICI) [13]	fractional inhibitory concentration index (FICI) [14]	fold change (FC) [15]	fold change (FC) [21]	fold change (FC) [24]	other results
32	< 0.25	13.6	< 0.25	16	14.4	64	0.38	0.019	< 0.25	178	Nc1nc2ccc(Cn3ccnc3C(=O)O)cc2s1	>64	1	4	0.02	0.02	0.03	1	>64	>128	fractional inhibitory concentration index (FICI) [11]: 0.125; IC50 [17]: 0.076 µM; IC50 [22]: 0.014 µM; solubility [23]: < 2500 µg/mL
32	< 0.25	5.04	1	16	9.55	64	1.12	0.17	4	118	O=C(O)c1nccn1Cc1ccc(O)cc1	16	1	4	–	–	–	1	>64	8	–
16	1	1.37	0.5	16	0.085	32	0.053	0.014	4	98.9	O=C(O)c1nccn1Cc1cc(Br)cc(Br)c1	32	2	4	0.06	0.05	0.06	2	16	8	fold change (FC) [25]: 8; IC50 [17]: 0.11 µM; IC50 [22]: 0.048 µM
